Measured values from patent publication US9273040B2 (Merck Sharp & Dohme Corp., priority 2011, dated 2016).

How the values were obtained:
[1] = target: T1, human Nav1.7 channels stably expressed in HEK 293 cells (Homo sapiens, UniProt Q15858); test: PatchXpress 7000 automated patch-clamp, sodium current; type: cell-based; details: 22° C., read-out: potency for the Nav 1.7 sodium ion channel (as measured by PatchXpress)
T1 construct: expressed in transfected cells
Excerpt: (§1) To measure state and use-dependent sodium channel inhibition, test compounds were further characterized in an automated PatchXpress® assay (Molecular Devices). Two voltage-clamp protocols were used. 1) Use-dependent protocol: Cells were held at a membrane potential 20 mV negative to the potential at which ˜50% of the channels are inactivated (V0.5 inact). A train of 30 ms depolarizations to −20 mV was applied to the cells expressing Nav1.7 at a frequency of 10 Hz. […] Data was collected in the absence and presence of drug, and after drug washout. 2) A double-pulse protocol was used to measure inactivated state block. Cells were held at a potential 20 mV negative to V0.5 inact. A 8000 ms pre-pulse 7 mV positive to V0.5 inact was given followed by a hyperpolarizing 2 ms pulse to −120 mV and a 20 ms test pulse to −20 mV. Protocol was applied to cells in the absence, presence of compound and after washout. The temperature of PatchXpress instruments was maintained at 22° C. The following recording solutions were used. Internal solution (mM): 30 CsCl, 5 HEPES, 10 EGTA, 120 CsF, 5 NaF, 2MgCl2, pH=7.3 with CsOH, 324 mosmo. External solution (mM): 120 NMDG, 40 NaCl, 1 KCl, 0.5 MgCl2, 5 HEPES, 2.7 CaCl2, pH=7.5 with NMDG-OH.
(§2) For all electrophysiology experiments, offline analysis was used to correct for current rundown and to determine percent inhibition as a function of drug concentration. IC50 values were determined by fitting to the Hill equation.

[2] = target: T2, human Nav1.5 channels stably expressed in HEK 293 cells (Homo sapiens, UniProt Q14524); test: as above; type: cell-based; details: selectivity over Nav1.5
T2 construct: expressed in transfected cells
Excerpt: as §1, §2

T1 sequence (Q15858 whole entry): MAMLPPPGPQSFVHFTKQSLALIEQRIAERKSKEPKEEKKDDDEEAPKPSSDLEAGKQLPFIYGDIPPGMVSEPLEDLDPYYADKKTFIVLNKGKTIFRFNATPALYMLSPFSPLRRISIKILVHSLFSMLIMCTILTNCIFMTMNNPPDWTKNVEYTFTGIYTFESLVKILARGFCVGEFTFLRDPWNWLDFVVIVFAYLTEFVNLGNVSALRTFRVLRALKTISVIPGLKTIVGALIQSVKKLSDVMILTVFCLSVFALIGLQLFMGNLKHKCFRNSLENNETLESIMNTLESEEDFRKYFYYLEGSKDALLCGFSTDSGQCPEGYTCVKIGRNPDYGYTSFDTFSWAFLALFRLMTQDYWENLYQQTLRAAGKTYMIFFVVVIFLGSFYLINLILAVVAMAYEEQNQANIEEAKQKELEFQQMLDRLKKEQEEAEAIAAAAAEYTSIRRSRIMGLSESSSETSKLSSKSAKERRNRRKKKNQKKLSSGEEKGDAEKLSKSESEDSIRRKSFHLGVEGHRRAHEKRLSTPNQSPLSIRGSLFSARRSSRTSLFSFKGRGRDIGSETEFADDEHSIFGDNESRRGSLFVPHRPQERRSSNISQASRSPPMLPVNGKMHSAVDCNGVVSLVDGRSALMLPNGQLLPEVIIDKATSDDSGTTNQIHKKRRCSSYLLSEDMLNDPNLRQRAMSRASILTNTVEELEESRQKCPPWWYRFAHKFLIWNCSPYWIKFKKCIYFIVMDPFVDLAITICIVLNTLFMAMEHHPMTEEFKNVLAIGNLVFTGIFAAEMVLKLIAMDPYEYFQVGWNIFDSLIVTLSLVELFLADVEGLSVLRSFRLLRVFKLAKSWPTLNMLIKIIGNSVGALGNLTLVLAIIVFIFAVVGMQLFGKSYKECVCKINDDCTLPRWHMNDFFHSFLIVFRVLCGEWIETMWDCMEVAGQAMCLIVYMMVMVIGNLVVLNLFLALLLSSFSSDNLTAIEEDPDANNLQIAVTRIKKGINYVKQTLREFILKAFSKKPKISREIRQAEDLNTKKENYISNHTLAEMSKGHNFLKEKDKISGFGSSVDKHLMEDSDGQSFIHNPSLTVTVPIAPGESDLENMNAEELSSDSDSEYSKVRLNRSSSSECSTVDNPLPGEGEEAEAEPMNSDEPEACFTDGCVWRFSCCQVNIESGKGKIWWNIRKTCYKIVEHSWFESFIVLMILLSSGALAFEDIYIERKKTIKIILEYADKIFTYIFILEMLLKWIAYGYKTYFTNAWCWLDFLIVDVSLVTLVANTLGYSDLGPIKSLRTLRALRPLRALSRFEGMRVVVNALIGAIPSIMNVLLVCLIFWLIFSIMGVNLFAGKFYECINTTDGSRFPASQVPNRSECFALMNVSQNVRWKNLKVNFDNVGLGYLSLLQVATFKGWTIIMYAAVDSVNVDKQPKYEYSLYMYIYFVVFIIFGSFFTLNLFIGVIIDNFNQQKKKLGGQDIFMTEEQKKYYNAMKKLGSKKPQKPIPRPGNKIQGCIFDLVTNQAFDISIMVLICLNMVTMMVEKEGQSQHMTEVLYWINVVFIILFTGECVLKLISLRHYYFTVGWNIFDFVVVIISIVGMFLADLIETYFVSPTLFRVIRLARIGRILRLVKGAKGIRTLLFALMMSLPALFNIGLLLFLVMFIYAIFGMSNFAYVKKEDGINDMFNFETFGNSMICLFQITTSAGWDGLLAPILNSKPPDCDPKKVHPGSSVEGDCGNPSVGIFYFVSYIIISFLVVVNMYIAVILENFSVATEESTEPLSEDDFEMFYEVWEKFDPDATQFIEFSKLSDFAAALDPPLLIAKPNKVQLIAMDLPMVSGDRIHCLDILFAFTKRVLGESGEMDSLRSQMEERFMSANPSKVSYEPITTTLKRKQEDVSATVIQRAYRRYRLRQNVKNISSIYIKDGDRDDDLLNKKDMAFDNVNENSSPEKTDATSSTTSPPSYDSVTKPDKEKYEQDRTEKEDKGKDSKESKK
T2 sequence (Q14524 whole entry): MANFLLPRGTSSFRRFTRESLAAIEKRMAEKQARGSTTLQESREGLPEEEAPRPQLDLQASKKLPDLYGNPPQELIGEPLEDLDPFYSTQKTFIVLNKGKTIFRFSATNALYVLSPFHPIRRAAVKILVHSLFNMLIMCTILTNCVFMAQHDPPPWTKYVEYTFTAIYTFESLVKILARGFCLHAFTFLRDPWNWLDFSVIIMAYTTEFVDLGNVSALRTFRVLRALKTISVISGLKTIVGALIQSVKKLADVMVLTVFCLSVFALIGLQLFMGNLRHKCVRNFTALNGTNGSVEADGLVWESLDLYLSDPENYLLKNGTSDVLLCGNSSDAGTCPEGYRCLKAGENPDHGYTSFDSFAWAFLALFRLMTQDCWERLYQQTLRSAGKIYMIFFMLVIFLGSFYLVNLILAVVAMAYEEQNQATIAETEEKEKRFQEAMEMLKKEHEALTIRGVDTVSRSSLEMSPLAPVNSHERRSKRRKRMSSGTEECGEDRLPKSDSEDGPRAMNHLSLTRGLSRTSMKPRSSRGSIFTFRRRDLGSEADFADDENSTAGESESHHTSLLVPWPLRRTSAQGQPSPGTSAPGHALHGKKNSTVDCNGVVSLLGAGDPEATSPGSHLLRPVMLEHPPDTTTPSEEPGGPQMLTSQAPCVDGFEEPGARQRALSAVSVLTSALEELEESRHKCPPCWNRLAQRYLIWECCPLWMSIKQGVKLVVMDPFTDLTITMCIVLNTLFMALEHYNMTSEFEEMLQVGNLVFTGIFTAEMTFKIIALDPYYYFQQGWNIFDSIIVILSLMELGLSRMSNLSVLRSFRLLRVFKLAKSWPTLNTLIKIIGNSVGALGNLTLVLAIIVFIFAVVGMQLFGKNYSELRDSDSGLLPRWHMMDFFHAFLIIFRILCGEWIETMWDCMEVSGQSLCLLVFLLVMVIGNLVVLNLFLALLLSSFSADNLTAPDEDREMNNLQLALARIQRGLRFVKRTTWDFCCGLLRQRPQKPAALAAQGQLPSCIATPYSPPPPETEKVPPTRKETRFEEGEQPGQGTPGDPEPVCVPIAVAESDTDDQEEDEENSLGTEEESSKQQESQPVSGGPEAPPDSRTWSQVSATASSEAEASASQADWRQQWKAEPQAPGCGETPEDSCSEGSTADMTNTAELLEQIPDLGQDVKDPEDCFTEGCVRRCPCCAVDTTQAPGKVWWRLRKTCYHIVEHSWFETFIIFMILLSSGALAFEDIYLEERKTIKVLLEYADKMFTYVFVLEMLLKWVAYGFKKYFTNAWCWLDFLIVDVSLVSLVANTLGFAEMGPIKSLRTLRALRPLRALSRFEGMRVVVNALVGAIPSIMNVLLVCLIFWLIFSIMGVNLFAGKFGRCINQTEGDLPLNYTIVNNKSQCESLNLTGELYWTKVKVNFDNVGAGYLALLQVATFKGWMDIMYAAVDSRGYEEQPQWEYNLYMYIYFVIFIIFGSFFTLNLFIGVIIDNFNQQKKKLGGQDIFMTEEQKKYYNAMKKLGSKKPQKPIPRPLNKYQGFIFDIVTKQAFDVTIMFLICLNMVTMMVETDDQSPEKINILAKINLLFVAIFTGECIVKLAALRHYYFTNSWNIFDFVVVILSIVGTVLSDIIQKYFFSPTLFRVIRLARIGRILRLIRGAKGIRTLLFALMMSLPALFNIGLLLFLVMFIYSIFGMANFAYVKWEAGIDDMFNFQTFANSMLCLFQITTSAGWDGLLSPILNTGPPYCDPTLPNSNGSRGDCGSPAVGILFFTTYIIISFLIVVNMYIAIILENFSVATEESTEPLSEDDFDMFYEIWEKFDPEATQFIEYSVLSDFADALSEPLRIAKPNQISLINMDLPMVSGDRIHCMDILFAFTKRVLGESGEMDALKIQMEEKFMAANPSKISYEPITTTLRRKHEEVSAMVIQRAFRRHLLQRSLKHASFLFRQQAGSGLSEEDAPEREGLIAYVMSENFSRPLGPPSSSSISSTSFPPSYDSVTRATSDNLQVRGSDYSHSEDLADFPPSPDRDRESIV

Structure (SMILES) | IC50 [1] | ratio of Nav 1.5:Nav 1.7 potency, determined by PatchXpress measurement [2]
C[C@H](c1ccccc1CCCN)n1c(=O)oc2cc(S(=O)(=O)Nc3ncns3)c(F)cc21 [Compound 33-7, (R)-3-(1-(2-(3-Aminopropyl)phenyl)ethyl)-5-fluoro-2-oxo-N-(1,2,4-thiadiazol-5-yl)-2,3-dihydrobenzo[d]oxazole-6-sulfonamide] | 51 nM | 166
Nc1cc2cccc(Cn3c(=O)oc4cc(S(=O)(=O)Nc5ncns5)c(F)cc43)c2cn1 [Compound 27-5, 3-((3-aminoisoquinolin-8-yl)methyl)-5-fluoro-2-oxo-N-(1,2,4-thiadiazol-5-yl)-2,3-dihydrobenzo[d]oxazole-6-sulfonamide] | 67 nM | 450
COC(=O)NC1CCc2cccc(Cn3c(=O)oc4cc(S(=O)(=O)Nc5ncns5)c(F)cc43)c2C1 (single isomer, unassigned) [Compound 23-1, methyl (8-((6-(N-(1,2,4-thiadiazol-5-yl)sulfamoyl)-5-fluoro-2-oxobenzo[d]oxazol-3(2H)-yl)methyl)-1,2,3,4-tetrahydronaphthalen-2-yl)carbamate] | 122 nM | 71
O=c1oc2cc(S(=O)(=O)Nc3ncns3)c(F)cc2n1CC1CC1c1ccccc1 (centres unmarked) [Compound 11-10, 5-fluoro-2-oxo-3-[(2-phenylcyclopropyl)methyl]-N-1,2,4-thiadiazol-5-yl-2,3-dihydro-1,3-benzoxazole-6-sulfonamide] | 44 nM | 123
C[C@H](c1cccc2c1CC(NS(C)(=O)=O)CC2)n1c(=O)oc2cc(S(=O)(=O)Nc3ncns3)c(F)cc21 (stereo partly drawn) [Compound 36-7, 5-fluoro-3-[(1R)-1-{7-[(methylsulfonyl)amino]-5,6,7,8-tetrahydronaphthalen-1-yl)ethyl]-2-oxo-N-1,2,4-thiadiazol-5-yl-2,3-dihydro-1,3-benzoxazole-6-sulfonamide] | 27 nM | 107
C[C@H](c1ccccc1CN1CCCC1)n1c(=O)oc2cc(S(=O)(=O)Nc3ncns3)c(F)cc21 [Compound 18-2, (R)-5-fluoro-2-oxo-3-(1-(2-(pyrrolidin-1-ylmethyl)phenyl)ethyl)-N-(1,2,4-thiadiazol-5-yl)-2,3-dihydrobenzo[d]oxazole-6-sulfonamide] | 24 nM | 446
C[C@@H](c1cccc2ccncc12)n1c(=O)oc2cc(S(=O)(=O)Nc3ncns3)ccc21 [Compound 14-9, 3-[(1S)-1-isoquinolin-8-ylethyl]-2-oxo-N-1,2,4-thiadiazol-5-yl-2,3-dihydro-1,3-benzoxazole-6-sulfonamide] | 808 nM | 37
NC1CCc2cccc(Cn3c(=O)oc4cc(S(=O)(=O)Nc5ncns5)ccc43)c2C1 (single isomer, unassigned) [Compound 23-14, (S or R)-3-[(7-amino-5,6,7,8-tetrahydronaphthalen-1-yl)methyl]-2-oxo-N-1,2,4-thiadiazol-5-yl-2,3-dihydro-1,3-benzoxazole-6-sulfonamide] | 75 nM | 393
O=c1oc2cc(S(=O)(=O)Nc3ncns3)c(F)cc2n1Cc1cccc2c1CC(N1CCC(F)(F)C1)CC2 (racemic) [Compound 23-5, (+/−)-3-{[7-(3,3-difluoropyrrolidin-1-yl)-5,6,7,8-tetrahydronaphthalen-1-yl]methyl}-5-fluoro-2-oxo-N-1,2,4-thiadiazol-5-yl-2,3-dihydro-1,3-benzoxazole-6-sulfonamide] | 278 nM | 78
C[C@H](c1ccccc1C1CNC1)n1c(=O)oc2cc(S(=O)(=O)Nc3nccs3)c(F)cc21 [Compound 43-21, 3-[(1R)-1-(2-azetidin-3-ylphenyl)ethyl]-5-fluoro-2-oxo-N-1,3-thiazol-2-yl-2,3-dihydro-1,3-benzoxazole-6-sulfonamide] | 18 nM | 1164
C[C@H](c1cccc2cncn12)n1c(=O)oc2cc(S(=O)(=O)Nc3nccs3)c(F)cc21 [Compound 43-18, 5-fluoro-3-[(1R)-1-imidazo[1,5-a]pyridin-5-ylethyl]-2-oxo-N-1,3-thiazol-2-yl-2,3-dihydro-1,3-benzoxazole-6-sulfonamide] | 215 nM | 139
Nc1ccc2c(c1)C(n1c(=O)oc3cc(S(=O)(=O)Nc4nccs4)c(F)cc31)CCC2 (centres unmarked) [Compound 43-16, 3-(7-amino-1,2,3,4-tetrahydronaphthalen-1-yl)-5-fluoro-2-oxo-N-1,3-thiazol-2-yl-2,3-dihydro-1,3-benzoxazole-6-sulfonamide] | 211 nM | 329
NC1CCc2cccc(Cn3c(=O)oc4cc(S(=O)(=O)Nc5ncns5)c(F)cc43)c2C1 (single isomer, unassigned) [Compound 23-27, (S or R)-3-[(7-amino-5,6,7,8-tetrahydronaphthalen-1-yl)methyl]-5-fluoro-2-oxo-N-1,2,4-thiadiazol-5-yl-2,3-dihydro-1,3-benzoxazole-6-sulfonamide] | 6 nM | 29
C[C@@H](c1ccccc1C1CNC1)n1c(=O)oc2cc(S(=O)(=O)Nc3nccs3)c(F)cc21 [Compound 43-20, 3-[(1S)-1-(2-azetidin-3-ylphenyl)ethyl]-5-fluoro-2-oxo-N-1,3-thiazol-2-yl-2,3-dihydro-1,3-benzoxazole-6-sulfonamide] | 621 nM | 48
O=c1oc2cc(S(=O)(=O)Nc3ncns3)c(F)cc2n1Cc1ccccc1 [Compound 11-7, 3-benzyl-5-fluoro-2-oxo-N-1,2,4-thiadiazol-5-yl-2,3-dihydro-1,3-benzoxazole-6-sulfonamide] | 545 nM | 55
O=c1oc2cc(S(=O)(=O)Nc3ncns3)c(F)cc2n1Cc1cccc2c1CC(N1CCCC1C(F)(F)F)CC2 (racemic) [Compound 23-11, (+/−)-5-fluoro-2-oxo-N-1,2,4-thiadiazol-5-yl-3-({7-[2-(trifluoromethyl)pyrrolidin-1-yl]-5,6,7,8-tetrahydronaphthalen-1-yl}methyl)-2,3-dihydro-1,3-benzoxazole-6-sulfonamide] | 115 nM | 73
O=c1oc2cc(S(=O)(=O)Nc3ncns3)c(F)cc2n1[C@@H]1C[C@@H](c2ccccc2)Oc2ccccc21 [Compound 39-15, 5-fluoro-2-oxo-3-[(2S,4R)-2-phenyl-3,4-dihydro-2H-chromen-4-yl]-N-1,2,4-thiadiazol-5-yl-2,3-dihydro-1,3-benzoxazole-6-sulfonamide] | 54 nM | 36
NC1Cc2cccc(Cn3c(=O)oc4cc(S(=O)(=O)Nc5ncns5)c(F)cc43)c2C1 (racemic) [Compound 23-17, (+/−)-3-[(2-amino-2,3-dihydro-1H-inden-4-yl)methyl]-5-fluoro-2-oxo-N-1,2,4-thiadiazol-5-yl-2,3-dihydro-1,3-benzoxazole-6-sulfonamide] | 50 nM | 321
C[C@H](c1ccccc1C1CNC1)n1c(=O)oc2cc(S(=O)(=O)Nc3ncns3)c(F)cc21 [Compound 31-1, (R)-3-(1-(2-(azetidin-3-yl)phenyl)ethyl)-5-fluoro-2-oxo-N-(1,2,4-thiadiazol-5-yl)-2,3-dihydrobenzo[d]oxazole-6-sulfonamide] | 15 nM | 603
C[C@H](c1ccccc1)n1c(=O)oc2cc(S(=O)(=O)Nc3nccs3)ccc21 [Compound 41-4, (R)-2-oxo-3-(1-phenylethyl)-N-(thiazol-2-yl)-2,3-dihydrobenzo[d]oxazole-6-sulfonamide] | 161 nM | 187
CC(c1cccc2c1CN(S(C)(=O)=O)CC2)n1c(=O)oc2cc(S(=O)(=O)Nc3ncns3)c(Cl)cc21 (racemic) [Compound 36-2, (+/−)-5-chloro-3-{1-[2-(methylsulfonyl)-1,2,3,4-tetrahydroisoquinolin-8-yl]ethyl}-2-oxo-N-1,2,4-thiadiazol-5-yl-2,3-dihydro-1,3-benzoxazole-6-sulfonamide] | 334 nM | 13
C[C@H](O)C#Cc1ccccc1[C@@H](C)n1c(=O)oc2cc(S(=O)(=O)Nc3ncns3)c(F)cc21 [Compound 17-12, 5-fluoro-3-[(1R)-1-{2-[(3S)-3-hydroxybut-1-yn-1-yl]phenyl}ethyl]-2-oxo-N-1,2,4-thiadiazol-5-yl-2,3-dihydro-1,3-benzoxazole-6-sulfonamide] | 37 nM | 262
